From patent US9283222B2 (priority 2006, dated 2016)

Target: Recombinant Human Poly(ADP-Ribose) Polymerase (PARP), PARP-1 (Homo sapiens (Human), UniProt P09874)
Settings: read-out: PARP-1 (Ki); Table 1; text calls the values EC50s

Recombinant Human Poly(ADP-Ribose) Polymerase (PARP), PARP-1, sequence (P09874 whole entry): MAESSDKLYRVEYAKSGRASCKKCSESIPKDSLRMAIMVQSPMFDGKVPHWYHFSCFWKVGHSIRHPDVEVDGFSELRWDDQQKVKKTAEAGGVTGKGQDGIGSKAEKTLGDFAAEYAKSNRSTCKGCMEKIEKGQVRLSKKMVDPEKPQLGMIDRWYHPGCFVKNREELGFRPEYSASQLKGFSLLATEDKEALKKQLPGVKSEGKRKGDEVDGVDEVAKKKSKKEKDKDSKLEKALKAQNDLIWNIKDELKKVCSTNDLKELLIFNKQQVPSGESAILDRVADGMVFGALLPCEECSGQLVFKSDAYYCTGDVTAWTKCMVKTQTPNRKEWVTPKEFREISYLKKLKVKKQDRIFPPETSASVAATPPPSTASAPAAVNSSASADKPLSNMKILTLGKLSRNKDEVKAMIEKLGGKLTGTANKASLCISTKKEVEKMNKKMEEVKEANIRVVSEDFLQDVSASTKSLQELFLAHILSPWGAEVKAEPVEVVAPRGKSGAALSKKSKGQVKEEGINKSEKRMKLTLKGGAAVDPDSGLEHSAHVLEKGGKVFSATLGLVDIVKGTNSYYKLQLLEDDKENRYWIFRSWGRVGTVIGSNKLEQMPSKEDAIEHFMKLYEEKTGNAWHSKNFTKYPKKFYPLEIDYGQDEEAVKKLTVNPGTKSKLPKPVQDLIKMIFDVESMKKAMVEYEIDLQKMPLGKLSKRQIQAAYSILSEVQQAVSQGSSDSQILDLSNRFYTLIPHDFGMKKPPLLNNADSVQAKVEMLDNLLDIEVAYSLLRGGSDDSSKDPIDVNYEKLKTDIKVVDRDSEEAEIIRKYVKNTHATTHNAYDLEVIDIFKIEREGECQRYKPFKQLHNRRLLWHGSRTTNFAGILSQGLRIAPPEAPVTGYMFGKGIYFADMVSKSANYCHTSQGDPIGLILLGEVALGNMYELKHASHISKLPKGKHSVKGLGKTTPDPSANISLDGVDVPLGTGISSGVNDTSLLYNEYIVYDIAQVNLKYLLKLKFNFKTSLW

Row | Compound | Ki [nM]
1 | CN(C)CCNC(=O)c1cccc(Cc2n[nH]c(=O)c3c2CCCC3)c1 [Example 313, N-(2-(dimethylamino)ethyl)-3-((4-oxo-3,4,5,6,7,8-hexahydrophthalazin-1-yl)methyl)benzamide] | 95
2 | CN(C)CCCNC(=O)c1cccc(Cc2n[nH]c(=O)c3c2CCCC3)c1 [Example 314, N-(3-(dimethylamino)propyl)-3-((4-oxo-3,4,5,6,7,8-hexahydrophthalazin-1-yl)methyl)benzamide] | 32
3 | O=C(NCCCN1CCCC1)c1cccc(Cc2n[nH]c(=O)c3c2CCCC3)c1 [Example 315, 3-((4-oxo-3,4,5,6,7,8-hexahydrophthalazin-1-yl)methyl)-N-(3-pyrrolidin-1-ylpropyl)benzamide] | 23
4 | O=C(NCCCN1CCCCC1)c1cccc(Cc2n[nH]c(=O)c3c2CCCC3)c1 [Example 316, 3-((4-oxo-3,4,5,6,7,8-hexahydrophthalazin-1-yl)methyl)-N-(3-piperidin-1-ylpropyl)benzamide] | 34
5 | O=C(NCCCN1CCOCC1)c1cccc(Cc2n[nH]c(=O)c3c2CCCC3)c1 [Example 317, N-(3-morpholin-4-ylpropyl)-3-((4-oxo-3,4,5,6,7,8-hexahydrophthalazin-1-yl)methyl)benzamide] | 25
6 | O=C(NCCc1c[nH]c2ccccc12)c1cccc(Cc2n[nH]c(=O)c3c2CCCC3)c1 [Example 318, N-(2-(1H-indol-3-yl)ethyl)-3-((4-oxo-3,4,5,6,7,8-hexahydrophthalazin-1-yl)methyl)benzamide] | 28
7 | O=C(Nc1nccs1)c1cccc(Cc2n[nH]c(=O)c3c2CCCC3)c1 [Example 319, 3-((4-oxo-3,4,5,6,7,8-hexahydrophthalazin-1-yl)methyl)-N-1,3-thiazol-2-ylbenzamide] | 94
8 | O=C(CNC(=O)OCc1ccccc1)Nc1cccc(CCc2n[nH]c(=O)c3c2CCCC3)c1 [Example 320, benzyl 2-oxo-2-(3-(2-(4-oxo-3,4,5,6,7,8-hexahydrophthalazin-1-yl)ethyl)phenylamino)ethylcarbamate] | 165
9 | O=C(CCC(=O)c1ccc(Oc2ccccc2)cc1)Nc1cccc(CCc2n[nH]c(=O)c3c2CCCC3)c1 [Example 321, 4-oxo-N-(3-(2-(4-oxo-3,4,5,6,7,8-hexahydrophthalazin-1-yl)ethyl)phenyl)-4-(4-phenoxyphenyl)butanamide] | 223
10 | O=C(Nc1cccc(CCc2n[nH]c(=O)c3c2CCCC3)c1)C1CCCN(C(=O)OCc2ccccc2)C1 (stereo not drawn) [Example 322, benzyl 3-(((3-(2-(4-oxo-3,4,5,6,7,8-hexahydrophthalazin-1-yl)ethyl)phenyl)amino)carbonyl)piperidine-1-carboxylate] | 556
11 | Cc1ccc(OCC(=O)Nc2cccc(CCc3n[nH]c(=O)c4c3CCCC4)c2)cc1 [Example 323, 2-(4-methylphenoxy)-N-(3-(2-(4-oxo-3,4,5,6,7,8-hexahydrophthalazin-1-yl)ethyl)phenyl)acetamide] | 237
12 | CCc1ccccc1NC(=O)c1cccc(Cc2n[nH]c(=O)c3c2CCCC3)c1 [Example 329, N-(2-ethylphenyl)-3-((4-oxo-3,4,5,6,7,8-hexahydrophthalazin-1-yl)methyl)benzamide] | 789
13 | CCCc1ccccc1NC(=O)c1cccc(Cc2n[nH]c(=O)c3c2CCCC3)c1 [Example 332, 3-((4-oxo-3,4,5,6,7,8-hexahydrophthalazin-1-yl)methyl)-N-(2-propylphenyl)benzamide] | 635
14 | CC(C)c1ccccc1NC(=O)c1cccc(Cc2n[nH]c(=O)c3c2CCCC3)c1 [Example 333, N-(2-isopropylphenyl)-3-((4-oxo-3,4,5,6,7,8-hexahydrophthalazin-1-yl)methyl)benzamide] | 892
15 | CC(C)c1ccc(NC(=O)c2cccc(Cc3n[nH]c(=O)c4c3CCCC4)c2)cc1 [Example 334, N-(4-isopropylphenyl)-3-((4-oxo-3,4,5,6,7,8-hexahydrophthalazin-1-yl)methyl)benzamide] | 191
16 | CC(C)(C)c1ccc(NC(=O)c2cccc(Cc3n[nH]c(=O)c4c3CCCC4)c2)cc1 [Example 336, N-(4-tert-butylphenyl)-3-((4-oxo-3,4,5,6,7,8-hexahydrophthalazin-1-yl)methyl)benzamide] | 363
17 | O=C(Nc1ccc(-c2ccccc2)cc1)c1cccc(Cc2n[nH]c(=O)c3c2CCCC3)c1 [Example 337, N-1,1′-biphenyl-4-yl-3-((4-oxo-3,4,5,6,7,8-hexahydrophthalazin-1-yl)methyl)benzamide] | 124
18 | COc1cc(NC(=O)c2cccc(Cc3n[nH]c(=O)c4c3CCCC4)c2)cc(C(F)(F)F)c1 [Example 347, N-(3-methoxy-5-(trifluoromethyl)phenyl)-3-((4-oxo-3,4,5,6,7,8-hexahydrophthalazin-1-yl)methyl)benzamide] | 337
19 | CCOc1ccccc1NC(=O)c1cccc(Cc2n[nH]c(=O)c3c2CCCC3)c1 [Example 354, N-(2-ethoxyphenyl)-3-((4-oxo-3,4,5,6,7,8-hexahydrophthalazin-1-yl)methyl)benzamide] | 363
20 | CCCOc1ccc(NC(=O)c2cccc(Cc3n[nH]c(=O)c4c3CCCC4)c2)cc1 [Example 355, 3-((4-oxo-3,4,5,6,7,8-hexahydrophthalazin-1-yl)methyl)-N-(4-propoxyphenyl)benzamide] | 92
21 | COc1ccc(C(C)(C)C)cc1NC(=O)c1cccc(Cc2n[nH]c(=O)c3c2CCCC3)c1 [Example 356, N-(5-tert-butyl-2-methoxyphenyl)-3-((4-oxo-3,4,5,6,7,8-hexahydrophthalazin-1-yl)methyl)benzamide] | 180

Now from value to molecule:

Row | Ki [nM] | Compound
22 | 99 | CCc1cccc(NC(=O)c2cccc(Cc3n[nH]c(=O)c4c3CCCC4)c2)c1 [Example 330, N-(3-ethylphenyl)-3-((4-oxo-3,4,5,6,7,8-hexahydrophthalazin-1-yl)methyl)benzamide]
23 | 140 | CCc1ccc(NC(=O)c2cccc(Cc3n[nH]c(=O)c4c3CCCC4)c2)cc1 [Example 331]
24 | 122 | CC(C)(C)c1cccc(NC(=O)c2cccc(Cc3n[nH]c(=O)c4c3CCCC4)c2)c1 [Example 335, N-(3-tert-butylphenyl)-3-((4-oxo-3,4,5,6,7,8-hexahydrophthalazin-1-yl)methyl)benzamide]
25 | 136 | Cc1ccc(NC(=O)c2cccc(Cc3n[nH]c(=O)c4c3CCCC4)c2)c(F)c1 [Example 338, N-(2-fluoro-4-methylphenyl)-3-((4-oxo-3,4,5,6,7,8-hexahydrophthalazin-1-yl)methyl)benzamide]
26 | 120 | Cc1ccc(NC(=O)c2cccc(Cc3n[nH]c(=O)c4c3CCCC4)c2)cc1F [Example 339, N-(3-fluoro-4-methylphenyl)-3-((4-oxo-3,4,5,6,7,8-hexahydrophthalazin-1-yl)methyl)benzamide]
27 | 279 | Cc1cc(F)ccc1NC(=O)c1cccc(Cc2n[nH]c(=O)c3c2CCCC3)c1 [Example 340, N-(4-fluoro-2-methylphenyl)-3-((4-oxo-3,4,5,6,7,8-hexahydrophthalazin-1-yl)methyl)benzamide]
28 | 154 | Cc1cc(NC(=O)c2cccc(Cc3n[nH]c(=O)c4c3CCCC4)c2)ccc1F [Example 341, N-(4-fluoro-3-methylphenyl)-3-((4-oxo-3,4,5,6,7,8-hexahydrophthalazin-1-yl)methyl)benzamide]
29 | 134 | Cc1ccc(NC(=O)c2cccc(Cc3n[nH]c(=O)c4c3CCCC4)c2)cc1Cl [Example 342, N-(3-chloro-4-methylphenyl)-3-((4-oxo-3,4,5,6,7,8-hexahydrophthalazin-1-yl)methyl)benzamide]
30 | 87 | Cc1cc(NC(=O)c2cccc(Cc3n[nH]c(=O)c4c3CCCC4)c2)ccc1Cl [Example 343, N-(4-chloro-3-methylphenyl)-3-((4-oxo-3,4,5,6,7,8-hexahydrophthalazin-1-yl)methyl)benzamide]
31 | 194 | Cc1ccc(NC(=O)c2cccc(Cc3n[nH]c(=O)c4c3CCCC4)c2)cc1Br [Example 344, N-(3-bromo-4-methylphenyl)-3-((4-oxo-3,4,5,6,7,8-hexahydrophthalazin-1-yl)methyl)benzamide]
32 | 149 | Cc1cc(NC(=O)c2cccc(Cc3n[nH]c(=O)c4c3CCCC4)c2)ccc1Br [Example 345, N-(4-bromo-3-methylphenyl)-3-((4-oxo-3,4,5,6,7,8-hexahydrophthalazin-1-yl)methyl)benzamide]
33 | 33 | COc1ccc(NC(=O)c2cccc(Cc3n[nH]c(=O)c4c3CCCC4)c2)cc1F [Example 346, N-(3-fluoro-4-methoxyphenyl)-3-((4-oxo-3,4,5,6,7,8-hexahydrophthalazin-1-yl)methyl)benzamide]
34 | 259 | Cc1cccc(O)c1NC(=O)c1cccc(Cc2n[nH]c(=O)c3c2CCCC3)c1 [Example 348, N-(2-hydroxy-6-methylphenyl)-3-((4-oxo-3,4,5,6,7,8-hexahydrophthalazin-1-yl)methyl)benzamide]
35 | 55 | Cc1c(O)cccc1NC(=O)c1cccc(Cc2n[nH]c(=O)c3c2CCCC3)c1 [Example 349, N-(3-hydroxy-2-methylphenyl)-3-((4-oxo-3,4,5,6,7,8-hexahydrophthalazin-1-yl)methyl)benzamide]
36 | 143 | Cc1ccc(NC(=O)c2cccc(Cc3n[nH]c(=O)c4c3CCCC4)c2)cc1O [Example 350, N-(3-hydroxy-4-methylphenyl)-3-((4-oxo-3,4,5,6,7,8-hexahydrophthalazin-1-yl)methyl)benzamide]
37 | 277 | COc1ccc(C)cc1NC(=O)c1cccc(Cc2n[nH]c(=O)c3c2CCCC3)c1 [Example 351, N-(2-methoxy-5-methylphenyl)-3-((4-oxo-3,4,5,6,7,8-hexahydrophthalazin-1-yl)methyl)benzamide]
38 | 154 | COc1cc(NC(=O)c2cccc(Cc3n[nH]c(=O)c4c3CCCC4)c2)ccc1C [Example 352, N-(3-methoxy-4-methylphenyl)-3-((4-oxo-3,4,5,6,7,8-hexahydrophthalazin-1-yl)methyl)benzamide]
39 | 59 | COc1ccc(NC(=O)c2cccc(Cc3n[nH]c(=O)c4c3CCCC4)c2)cc1O [Example 353, N-(3-hydroxy-4-methoxyphenyl)-3-((4-oxo-3,4,5,6,7,8-hexahydrophthalazin-1-yl)methyl)benzamide]
